Target: T1, human ACE2 protein (hACE2) (Homo sapiens, UniProt Q9BYF1)
T1 construct: His; purchased AbClonal (Woburn, MA, USA) RP01277; host or cells: HEK293
Assay: biochemical
Format: binding

T1 sequence (Q9BYF1 18-740): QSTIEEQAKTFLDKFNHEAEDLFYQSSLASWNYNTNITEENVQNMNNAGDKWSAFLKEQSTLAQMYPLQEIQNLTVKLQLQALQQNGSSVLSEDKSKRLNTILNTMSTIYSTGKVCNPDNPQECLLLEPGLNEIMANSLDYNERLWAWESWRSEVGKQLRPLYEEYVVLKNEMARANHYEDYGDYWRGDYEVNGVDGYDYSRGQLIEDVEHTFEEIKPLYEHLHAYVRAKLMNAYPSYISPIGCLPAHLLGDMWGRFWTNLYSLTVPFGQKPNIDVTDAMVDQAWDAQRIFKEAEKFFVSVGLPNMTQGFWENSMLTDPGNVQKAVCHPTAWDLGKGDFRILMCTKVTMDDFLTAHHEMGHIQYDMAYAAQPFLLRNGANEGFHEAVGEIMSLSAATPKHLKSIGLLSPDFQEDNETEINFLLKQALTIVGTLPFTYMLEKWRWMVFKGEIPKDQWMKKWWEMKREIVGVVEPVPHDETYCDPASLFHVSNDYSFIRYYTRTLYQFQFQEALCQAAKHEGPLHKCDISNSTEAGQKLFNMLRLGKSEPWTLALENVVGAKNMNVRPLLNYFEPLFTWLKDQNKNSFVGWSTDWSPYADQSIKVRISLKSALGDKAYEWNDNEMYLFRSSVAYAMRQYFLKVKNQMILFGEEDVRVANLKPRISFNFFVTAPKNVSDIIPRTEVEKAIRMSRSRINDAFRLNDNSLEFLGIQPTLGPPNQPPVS

Structure (SMILES) | Kd | N (stoichiometry) (pH 7.4) | fold increase in binding affinity (pH 7.4) | thermodynamic signature (enthalpic vs entropic contribution) (pH 7.4) | ΔGITC (pH 7.4) | ΔHITC (pH 7.4) | −TΔSITC (pH 7.4)
CC(=O)NCC(=O)N[C@H](C(=O)N[C@@H](CCCCN)C(=O)NCC(=O)N[C@@H](Cc1ccccc1)C(=O)N[C@@H](CC(N)=O)C(=O)N[C@@H](CS)C(=O)N[C@@H](Cc1ccc(O)cc1)C(=O)N[C@@H](Cc1ccccc1)C(=O)N1CCC[C@H]1C(=O)N[C@@H](CC(C)C)C(=O)N[C@@H](CCC(N)=O)C(=O)N[C@@H](CO)C(=O)N[C@@H](Cc1ccc(O)cc1)C(=O)NCC(=O)N[C@@H](Cc1ccccc1)C(=O)N[C@@H](CCC(N)=O)C(=O)N1CCC[C@H]1C(=O)N[C@H](C(=O)N[C@@H](Cc1ccc(O)cc1)C(=O)NCC(N)=O)[C@@H](C)O)C(C)C [Beta/Gamma] | 310 ± 80 nM |  |  |  |  |  | 
CC(=O)NCC(=O)N[C@H](C(=O)N[C@@H](CCCCN)C(=O)NCC(=O)N[C@@H](Cc1ccccc1)C(=O)N[C@@H](CC(N)=O)C(=O)N[C@@H](CS)C(=O)N[C@@H](Cc1ccc(O)cc1)C(=O)N[C@@H](Cc1ccccc1)C(=O)N1CCC[C@H]1C(=O)N[C@@H](CC(C)C)C(=O)N[C@@H](CCC(N)=O)C(=O)N[C@@H](CO)C(=O)N[C@@H](Cc1ccc(O)cc1)C(=O)NCC(=O)N[C@@H](Cc1ccccc1)C(=O)N[C@@H](CCC(N)=O)C(=O)N1CCC[C@H]1C(=O)N[C@H](C(=O)N[C@@H](CC(N)=O)C(=O)NCC(N)=O)[C@@H](C)O)C(C)C [Zeta] | 810 ± 60 nM | 0.76 ± 0.03 | 5.8 fold | the enthalpic and entropic contributions are of comparable magnitude within the experimental error | -8.31 ± 0.07 kcal/mol | -4.26 ± 0.24 kcal/mol | -4.06 ± 0.25 kcal/mol

From paper PMC12071706, “Impact of SARS-CoV-2 RBM Mutations N501Y and E484K on ACE2 Binding: A Combined Computational and Experimental Study” (International Journal of Molecular Sciences, 2025)
